According to ChEMBL document CHEMBL1833857, “Histone deacetylase activators: N-acetylthioureas serve as highly potent and isozyme selective activators for human histone deacetylase-8 on a fluorescent substrate” (Bioorg Med Chem Lett, 2011):
The source made the active and inactive calls. No cut-off for these calls is given here.

How the values were obtained:
[1] = target: T1, Histone deacetylase 8 (Homo sapiens) (UniProt Q9BY41); experiment: Activation of recombinant human HDAC8 assessed as ratio of the initial rate of reaction in the absence and presence of compound using Fluor-de-Lys as substrate at 10 uM by spectrofluorometry
T1 sequence (whole entry): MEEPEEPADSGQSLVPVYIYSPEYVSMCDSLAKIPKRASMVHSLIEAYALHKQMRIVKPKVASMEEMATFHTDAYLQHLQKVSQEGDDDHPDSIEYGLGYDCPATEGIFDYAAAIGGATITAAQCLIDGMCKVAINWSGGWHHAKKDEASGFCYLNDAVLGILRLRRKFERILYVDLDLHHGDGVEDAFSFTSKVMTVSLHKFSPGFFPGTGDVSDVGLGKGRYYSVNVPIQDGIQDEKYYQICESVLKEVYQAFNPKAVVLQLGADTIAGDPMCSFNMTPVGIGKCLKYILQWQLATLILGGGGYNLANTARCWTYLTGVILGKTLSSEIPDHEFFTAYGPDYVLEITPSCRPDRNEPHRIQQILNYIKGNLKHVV

[2] = target: T1, Histone deacetylase 8 (Homo sapiens); experiment: Activation of recombinant human HDAC8 using Fluor-de-Lys as substrate by spectrofluorometry
[3] = target: T1, Histone deacetylase 8 (Homo sapiens); experiment: Maximum activation of recombinant human HDAC8 using Fluor-de-Lys as substrate by spectrofluorometry relative to control
[4] = target: T1, Histone deacetylase 8 (Homo sapiens); experiment: Activation of recombinant human HDAC8 assessed as decrease in Km using Fluor-de-Lys as substrate by spectrofluorometry
[5] = target: T1, Histone deacetylase 8 (Homo sapiens); experiment: Activation of recombinant human HDAC8 assessed as increase in Kcat using Fluor-de-Lys as substrate by spectrofluorometry relative to control
[6] = target: T1, Histone deacetylase 8 (Homo sapiens); experiment: Activation of recombinant human HDAC8 assessed as increase in ratio of Kcat to Km using Fluor-de-Lys as substrate by spectrofluorometry relative to control
[7] = target: Histone deacetylase 1 (Homo sapiens) (UniProt Q13547); experiment: Inhibition of HDAC1 using Fluor-de-Lys as substrate at 100 uM by spectrofluorometry
Sequence of Histone deacetylase 1 (Homo sapiens) (Q13547 whole entry): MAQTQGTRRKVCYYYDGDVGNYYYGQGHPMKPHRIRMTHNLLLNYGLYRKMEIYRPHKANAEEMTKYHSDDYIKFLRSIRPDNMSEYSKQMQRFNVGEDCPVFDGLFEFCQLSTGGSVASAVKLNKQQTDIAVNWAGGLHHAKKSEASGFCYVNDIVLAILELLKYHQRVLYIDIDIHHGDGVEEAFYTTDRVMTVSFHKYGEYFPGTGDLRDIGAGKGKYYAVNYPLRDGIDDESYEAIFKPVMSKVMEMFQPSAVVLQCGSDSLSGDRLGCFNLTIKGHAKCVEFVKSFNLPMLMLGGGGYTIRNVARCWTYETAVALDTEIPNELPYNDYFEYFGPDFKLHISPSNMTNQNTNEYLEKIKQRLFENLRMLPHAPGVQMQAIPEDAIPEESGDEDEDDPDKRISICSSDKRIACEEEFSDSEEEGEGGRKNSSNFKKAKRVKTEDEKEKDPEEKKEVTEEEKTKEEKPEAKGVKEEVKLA

[8] = target: Histone deacetylase 2 (Homo sapiens) (UniProt Q92769); experiment: Inhibition of HDAC2 using Fluor-de-Lys as substrate at 100 uM by spectrofluorometry
Sequence of Histone deacetylase 2 (Homo sapiens) (Q92769 whole entry): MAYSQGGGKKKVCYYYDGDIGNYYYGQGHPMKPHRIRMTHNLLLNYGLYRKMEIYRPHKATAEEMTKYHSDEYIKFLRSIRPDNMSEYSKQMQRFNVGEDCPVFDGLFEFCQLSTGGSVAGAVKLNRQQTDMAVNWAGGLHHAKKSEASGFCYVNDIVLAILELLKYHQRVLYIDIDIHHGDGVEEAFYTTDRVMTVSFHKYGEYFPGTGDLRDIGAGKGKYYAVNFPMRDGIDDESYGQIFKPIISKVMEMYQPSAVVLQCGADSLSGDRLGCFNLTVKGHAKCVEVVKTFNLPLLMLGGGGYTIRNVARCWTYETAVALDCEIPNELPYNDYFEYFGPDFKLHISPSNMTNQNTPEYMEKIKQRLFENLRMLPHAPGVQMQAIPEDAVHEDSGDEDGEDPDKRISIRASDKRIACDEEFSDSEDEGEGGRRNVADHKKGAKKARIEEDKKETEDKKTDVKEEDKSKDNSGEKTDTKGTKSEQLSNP

[9] = target: Histone deacetylase 3 (Homo sapiens) (UniProt O15379); experiment: Inhibition of HDAC3 using Fluor-de-Lys as substrate at 100 uM by spectrofluorometry
Sequence of Histone deacetylase 3 (Homo sapiens) (O15379 whole entry): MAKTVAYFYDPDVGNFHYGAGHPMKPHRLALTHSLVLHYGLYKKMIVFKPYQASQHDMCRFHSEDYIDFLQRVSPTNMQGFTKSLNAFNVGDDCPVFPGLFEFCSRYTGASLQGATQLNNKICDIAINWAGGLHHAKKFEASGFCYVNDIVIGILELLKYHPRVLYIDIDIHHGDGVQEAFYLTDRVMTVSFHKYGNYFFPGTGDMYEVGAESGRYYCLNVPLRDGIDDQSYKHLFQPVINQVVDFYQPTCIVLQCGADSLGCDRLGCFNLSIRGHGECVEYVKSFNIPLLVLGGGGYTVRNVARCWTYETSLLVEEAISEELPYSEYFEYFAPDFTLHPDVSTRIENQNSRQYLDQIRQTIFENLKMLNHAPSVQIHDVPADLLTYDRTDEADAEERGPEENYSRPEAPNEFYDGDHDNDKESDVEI

[10] = target: Histone deacetylase 4 (Homo sapiens) (UniProt P56524); experiment: Inhibition of HDAC4 using trifluoroacetyl-lysine containing fluorogenic substrate at 100 uM by spectrofluorometry
Sequence of Histone deacetylase 4 (Homo sapiens) (P56524 whole entry): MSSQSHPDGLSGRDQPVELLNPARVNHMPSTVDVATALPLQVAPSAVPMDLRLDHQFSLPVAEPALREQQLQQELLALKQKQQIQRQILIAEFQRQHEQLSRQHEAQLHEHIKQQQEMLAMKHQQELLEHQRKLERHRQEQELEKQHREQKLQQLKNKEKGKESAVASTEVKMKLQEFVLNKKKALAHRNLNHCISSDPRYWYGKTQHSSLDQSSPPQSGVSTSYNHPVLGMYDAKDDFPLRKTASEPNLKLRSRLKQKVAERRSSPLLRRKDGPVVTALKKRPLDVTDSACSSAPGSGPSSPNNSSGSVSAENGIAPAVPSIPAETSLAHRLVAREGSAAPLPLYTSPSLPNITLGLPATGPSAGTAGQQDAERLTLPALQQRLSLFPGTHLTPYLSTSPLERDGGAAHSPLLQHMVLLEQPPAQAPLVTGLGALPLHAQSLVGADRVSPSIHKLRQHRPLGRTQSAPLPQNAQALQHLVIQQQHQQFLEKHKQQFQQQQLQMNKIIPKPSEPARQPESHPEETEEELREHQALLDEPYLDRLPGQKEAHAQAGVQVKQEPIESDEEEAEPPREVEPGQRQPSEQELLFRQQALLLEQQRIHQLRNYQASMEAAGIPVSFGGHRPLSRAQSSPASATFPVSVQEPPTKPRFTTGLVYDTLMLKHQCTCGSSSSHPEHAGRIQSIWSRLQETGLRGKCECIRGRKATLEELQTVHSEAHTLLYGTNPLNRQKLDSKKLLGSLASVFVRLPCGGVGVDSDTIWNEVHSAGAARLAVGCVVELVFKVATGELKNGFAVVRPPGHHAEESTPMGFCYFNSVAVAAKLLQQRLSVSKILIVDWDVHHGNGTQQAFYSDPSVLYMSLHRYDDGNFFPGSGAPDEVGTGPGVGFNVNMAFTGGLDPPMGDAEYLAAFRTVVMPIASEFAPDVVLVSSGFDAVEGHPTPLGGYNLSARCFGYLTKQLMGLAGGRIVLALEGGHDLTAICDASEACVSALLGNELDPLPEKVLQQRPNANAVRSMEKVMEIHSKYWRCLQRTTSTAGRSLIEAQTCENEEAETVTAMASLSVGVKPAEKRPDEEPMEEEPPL

[11] = target: T2, Protein deacetylase HDAC6 (Homo sapiens) (UniProt Q9UBN7); experiment: Inhibition of HDAC6 using Fluor-de-Lys as substrate at 100 uM by spectrofluorometry
T2 sequence (whole entry): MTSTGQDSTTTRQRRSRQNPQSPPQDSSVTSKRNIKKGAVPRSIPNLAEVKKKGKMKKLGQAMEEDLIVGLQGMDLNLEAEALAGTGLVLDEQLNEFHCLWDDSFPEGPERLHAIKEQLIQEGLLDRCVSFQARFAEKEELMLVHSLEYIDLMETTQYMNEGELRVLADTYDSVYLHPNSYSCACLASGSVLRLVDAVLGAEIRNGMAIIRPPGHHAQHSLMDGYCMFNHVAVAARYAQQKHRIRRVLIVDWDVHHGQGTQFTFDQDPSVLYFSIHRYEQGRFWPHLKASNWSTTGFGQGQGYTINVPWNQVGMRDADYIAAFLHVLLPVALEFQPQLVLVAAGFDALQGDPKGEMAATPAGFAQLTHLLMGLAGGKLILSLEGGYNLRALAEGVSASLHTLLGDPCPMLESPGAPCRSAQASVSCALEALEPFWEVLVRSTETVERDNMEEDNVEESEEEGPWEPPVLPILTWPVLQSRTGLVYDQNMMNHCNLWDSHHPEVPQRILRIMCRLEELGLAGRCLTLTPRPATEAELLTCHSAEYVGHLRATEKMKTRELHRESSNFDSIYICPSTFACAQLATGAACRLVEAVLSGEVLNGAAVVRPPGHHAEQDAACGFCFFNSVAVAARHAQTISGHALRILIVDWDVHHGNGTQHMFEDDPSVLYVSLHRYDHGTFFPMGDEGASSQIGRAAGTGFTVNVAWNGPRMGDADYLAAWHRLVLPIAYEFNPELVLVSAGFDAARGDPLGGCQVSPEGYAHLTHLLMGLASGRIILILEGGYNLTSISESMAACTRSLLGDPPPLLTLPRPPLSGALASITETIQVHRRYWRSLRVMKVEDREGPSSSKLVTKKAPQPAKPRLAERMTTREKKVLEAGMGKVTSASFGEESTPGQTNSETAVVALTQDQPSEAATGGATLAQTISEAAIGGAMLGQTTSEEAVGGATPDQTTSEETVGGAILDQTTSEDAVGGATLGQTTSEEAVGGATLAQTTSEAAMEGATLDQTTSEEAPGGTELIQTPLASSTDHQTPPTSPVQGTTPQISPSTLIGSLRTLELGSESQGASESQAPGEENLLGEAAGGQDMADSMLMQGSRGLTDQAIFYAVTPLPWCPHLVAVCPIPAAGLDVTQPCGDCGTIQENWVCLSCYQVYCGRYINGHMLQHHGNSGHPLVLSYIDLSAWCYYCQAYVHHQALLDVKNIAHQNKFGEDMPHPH

[12] = target: T3, Polyamine deacetylase HDAC10 (Homo sapiens) (UniProt Q969S8); experiment: Inhibition of HDAC10 using Fluor-de-Lys as substrate at 100 uM by spectrofluorometry
T3 sequence (whole entry): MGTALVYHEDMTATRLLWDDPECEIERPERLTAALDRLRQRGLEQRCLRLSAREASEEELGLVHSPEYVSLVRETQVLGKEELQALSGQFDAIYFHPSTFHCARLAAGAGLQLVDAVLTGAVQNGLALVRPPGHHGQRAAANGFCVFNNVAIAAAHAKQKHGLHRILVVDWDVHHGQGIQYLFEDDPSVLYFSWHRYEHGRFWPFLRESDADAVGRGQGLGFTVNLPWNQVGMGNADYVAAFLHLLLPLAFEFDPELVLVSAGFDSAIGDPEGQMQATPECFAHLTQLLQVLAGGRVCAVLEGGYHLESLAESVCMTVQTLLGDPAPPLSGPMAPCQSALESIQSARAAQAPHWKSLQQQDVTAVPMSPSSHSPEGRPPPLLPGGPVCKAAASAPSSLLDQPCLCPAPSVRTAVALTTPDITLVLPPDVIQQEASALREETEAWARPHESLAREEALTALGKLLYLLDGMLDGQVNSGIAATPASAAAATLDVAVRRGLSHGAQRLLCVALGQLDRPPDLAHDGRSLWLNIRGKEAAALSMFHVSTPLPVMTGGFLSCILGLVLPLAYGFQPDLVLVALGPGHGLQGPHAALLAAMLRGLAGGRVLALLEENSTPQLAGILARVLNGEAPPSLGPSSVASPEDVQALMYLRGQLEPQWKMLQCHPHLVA

[13] = target: T4, Histone deacetylase 11 (Homo sapiens) (UniProt Q96DB2); experiment: Inhibition of HDAC11 using Fluor-de-Lys as substrate at 100 uM by spectrofluorometry
T4 sequence (whole entry): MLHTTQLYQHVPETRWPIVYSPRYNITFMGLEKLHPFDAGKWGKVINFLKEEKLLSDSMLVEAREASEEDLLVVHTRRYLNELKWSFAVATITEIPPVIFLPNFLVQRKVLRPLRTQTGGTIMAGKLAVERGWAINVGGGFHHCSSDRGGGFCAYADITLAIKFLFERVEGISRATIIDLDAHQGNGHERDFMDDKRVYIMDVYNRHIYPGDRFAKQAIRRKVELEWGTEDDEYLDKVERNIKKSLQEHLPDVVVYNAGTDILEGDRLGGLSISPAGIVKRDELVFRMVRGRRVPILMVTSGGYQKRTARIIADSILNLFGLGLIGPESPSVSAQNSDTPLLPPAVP

[14] = target: Histone deacetylase 4 (Homo sapiens) (UniProt P56524); experiment: Activation of HDAC4 using trifluoroacetyl-lysine containing fluorogenic substrate at 100 uM by spectrofluorometry
[15] = target: Histone deacetylase 4 (Homo sapiens) (UniProt P56524); experiment: Activation of HDAC4 using trifluoroacetyl-lysine containing fluorogenic substrate at 10 uM by spectrofluorometry
[16] = target: Histone deacetylase 1 (Homo sapiens) (UniProt Q13547); experiment: Activation of HDAC1 using Fluor-de-Lys as substrate at 100 uM by spectrofluorometry
[17] = target: Histone deacetylase 2 (Homo sapiens) (UniProt Q92769); experiment: Activation of HDAC2 using Fluor-de-Lys as substrate at 100 uM by spectrofluorometry
[18] = target: Histone deacetylase 3 (Homo sapiens) (UniProt O15379); experiment: Activation of HDAC3 using Fluor-de-Lys as substrate at 100 uM by spectrofluorometry
[19] = target: T2, Protein deacetylase HDAC6 (Homo sapiens); experiment: Activation of HDAC6 using Fluor-de-Lys as substrate at 100 uM by spectrofluorometry
[20] = target: T3, Polyamine deacetylase HDAC10 (Homo sapiens); experiment: Activation of HDAC10 using Fluor-de-Lys as substrate at 100 uM by spectrofluorometry
[21] = target: Histone deacetylase 1 (Homo sapiens) (UniProt Q13547); experiment: Activation of HDAC1 using Fluor-de-Lys as substrate at 10 uM by spectrofluorometry
[22] = target: Histone deacetylase 2 (Homo sapiens) (UniProt Q92769); experiment: Activation of HDAC2 using Fluor-de-Lys as substrate at 10 uM by spectrofluorometry
[23] = target: Histone deacetylase 3 (Homo sapiens) (UniProt O15379); experiment: Activation of HDAC3 using Fluor-de-Lys as substrate at 10 uM by spectrofluorometry
[24] = target: T2, Protein deacetylase HDAC6 (Homo sapiens); experiment: Activation of HDAC6 using Fluor-de-Lys as substrate at 10 uM by spectrofluorometry
[25] = target: T3, Polyamine deacetylase HDAC10 (Homo sapiens); experiment: Activation of HDAC10 using Fluor-de-Lys as substrate at 10 uM by spectrofluorometry
[26] = target: T4, Histone deacetylase 11 (Homo sapiens); experiment: Activation of HDAC11 using Fluor-de-Lys as substrate at 100 uM by spectrofluorometry
[27] = target: T4, Histone deacetylase 11 (Homo sapiens); experiment: Activation of HDAC11 using Fluor-de-Lys as substrate at 10 uM by spectrofluorometry
[28] = Solubility of the compound at 100 uM; type: physicochemical

| Compound | fold change (FC) [1] | inhibition [7] | inhibition [8] | inhibition [9] | inhibition [10] | inhibition [11] | inhibition [12] | inhibition [13] | Activity [14] | Activity [15] | Activity [17] | Activity [18] | Activity [19] | Activity [20] | Activity [22] | Activity [23] | Activity [24] | Activity [25] | Activity [26] | Activity [27] | also measured |
| --- | --- | --- | --- | --- | --- | --- | --- | --- | --- | --- | --- | --- | --- | --- | --- | --- | --- | --- | --- | --- | --- |
| O=C(NC(=S)Nc1ccccc1)c1ccccc1 | 12 | 8% | 8% | 6% | inactive | 30% | 15% | 14% | inactive | inactive |  |  |  |  |  |  |  |  |  |  | Ka [2]: 12.4 µM; fold change (FC) [3]: 26.8; fold change (FC) [4]: 3; fold change (FC) [5]: 5; fold change (FC) [6]: 16 |
| O=C(NC(=S)NCCc1ccccc1)c1ccccc1 | 2 | inactive | inactive | inactive | inactive | inactive | inactive | 6% | inactive | inactive | inactive | inactive | inactive | inactive | inactive | inactive | inactive | inactive |  |  | Activity [16]: inactive; Activity [21]: inactive |
| O=C(NC(=S)NCc1ccccc1)c1ccccc1 | 3.3 | 5% | inactive | inactive | inactive | inactive | inactive | inactive | inactive | inactive | inactive | inactive | inactive | inactive | inactive | inactive | inactive | inactive | inactive | inactive |  |
| O=C(NC(=S)Nc1ccccc1)c1ccccc1F | 3.5 | 5% | inactive | inactive | inactive | inactive | inactive | inactive | inactive | inactive | inactive | inactive | inactive | inactive | inactive | inactive | inactive | inactive | inactive | inactive |  |
| O=C(NC(=S)NC1CCCCC1)c1ccccc1 | 5.6 | 5% | inactive | inactive | inactive | inactive | inactive | inactive | inactive | inactive | inactive | inactive | inactive | inactive | inactive | inactive | inactive | inactive | inactive | inactive |  |
| Cc1cc(=O)oc2cc(NC(=S)NC(=O)c3ccccc3)ccc12 | 2 |  |  |  |  |  |  |  | inactive | inactive |  |  |  |  |  |  |  |  |  |  | solubility [28]: Insoluble |
| O=C(NC(=S)NCc1ccc(C(F)(F)F)cc1)c1ccccc1 | 1.2 | inactive | 7% | 5% | inactive | inactive | inactive | inactive | inactive | inactive |  |  | inactive | inactive |  |  | inactive | inactive | inactive | inactive | Activity [16]: inactive; Activity [21]: inactive |
